Tests used:
Experiment in all cases: relative viability (nuclei count vs DMSO), 5 days (fraction); higher = more cells survive
COR-L 105 = system: COR-L 105
Outline: (§1)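 Lung cancer cell lines, seeded in 1536-well plates, were treated the following day by pin tool with a single drug or with five library-drug doses (not always all listed) in √10 steps on top of a fixed anchor-drug dose. Cells were fixed and nuclei stained in one step after 5 days, and nuclei were counted. Relative viability is the nuclei count for treated wells divided by that for vehicle wells, reported as medians of duplicate plates.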

NCI-H1755 = system: NCI-H1755
Outline: as §1

SK-MES-1 = system: SK-MES-1
Outline: as §1

NCI-H2023 = system: NCI-H2023
Outline: as §1

NCI-H1792 = system: NCI-H1792
Outline: as §1

COR-L23 = system: COR-L23
Outline: as §1

NCI-H2009 = system: NCI-H2009
Outline: as §1

NCI-H358 = system: NCI-H358
Outline: as §1

PC-14 = system: PC-14
Outline: as §1

LC-2-ad = system: LC-2-ad
Outline: as §1

NCI-H2347 = system: NCI-H2347
Outline: as §1

EMC-BAC-2 = system: EMC-BAC-2
Outline: as §1

NCI-H23 = system: NCI-H23
Outline: as §1

NCI-H1793 = system: NCI-H1793
Outline: as §1

NCI-H1437 = system: NCI-H1437
Outline: as §1

NCI-H650 = system: NCI-H650
Outline: as §1

201T = system: 201T
Outline: as §1

HCC-366 = system: HCC-366
Outline: as §1

NCI-H1395 = system: NCI-H1395
Outline: as §1

NCI-H1915 = system: NCI-H1915
Outline: as §1

HCC-15 = system: HCC-15
Outline: as §1

Nc1cccc2c1CN(C1CCC(=O)NC1=O)C2=O (configuration not stated) [Lenalidomide] + CS(=O)(=O)CCNCc1ccc(-c2ccc3ncnc(Nc4ccc(OCc5cccc(F)c5)c(Cl)c4)c3c2)o1 [Lapatinib] (partner 2 µM)
relative viability (COR-L 105; first compound 0.253 µM): 0.386 | relative viability (COR-L 105; first compound 0.8 µM): 0.364 | relative viability (COR-L 105; first compound 2.53 µM): 0.343 | relative viability (COR-L 105; first compound 8 µM): 0.33 | relative viability (NCI-H1755; first compound 0.253 µM): 1.02 | relative viability (NCI-H1755; first compound 0.8 µM): 1 | relative viability (NCI-H1755; first compound 2.53 µM): 1.04 | relative viability (NCI-H1755; first compound 8 µM): 0.916 | relative viability (SK-MES-1; first compound 0.253 µM): 0.416 | relative viability (SK-MES-1; first compound 0.8 µM): 0.397 | relative viability (SK-MES-1; first compound 2.53 µM): 0.536 | relative viability (SK-MES-1; first compound 8 µM): 0.391 | relative viability (NCI-H2023; first compound 0.253 µM): 0.74 | relative viability (NCI-H2023; first compound 0.8 µM): 0.859 | relative viability (NCI-H2023; first compound 2.53 µM): 0.838 | relative viability (NCI-H2023; first compound 8 µM): 0.568 | relative viability (NCI-H1792; first compound 0.253 µM): 0.946 | relative viability (NCI-H1792; first compound 0.8 µM): 0.729 | relative viability (NCI-H1792; first compound 2.53 µM): 1.03 | relative viability (NCI-H1792; first compound 8 µM): 0.666 | relative viability (COR-L23; first compound 0.253 µM): 1.05 | relative viability (COR-L23; first compound 0.8 µM): 0.935 | relative viability (COR-L23; first compound 2.53 µM): 1.29 | relative viability (COR-L23; first compound 8 µM): 1.2 | relative viability (NCI-H2009; first compound 0.253 µM): 0.919 | relative viability (NCI-H2009; first compound 0.8 µM): 0.947 | relative viability (NCI-H2009; first compound 2.53 µM): 1.25 | relative viability (NCI-H2009; first compound 8 µM): 1.25 | relative viability (NCI-H358; first compound 0.253 µM): 0.41 | relative viability (NCI-H358; first compound 0.8 µM): 0.623 | relative viability (NCI-H358; first compound 2.53 µM): 0.51 | relative viability (NCI-H358; first compound 8 µM): 0.453 | relative viability (PC-14; first compound 0.253 µM): 0.294 | relative viability (PC-14; first compound 0.8 µM): 0.32 | relative viability (PC-14; first compound 2.53 µM): 0.4 | relative viability (PC-14; first compound 8 µM): 0.302 | relative viability (LC-2-ad; first compound 0.253 µM): 0.941 | relative viability (LC-2-ad; first compound 0.8 µM): 0.96 | relative viability (LC-2-ad; first compound 2.53 µM): 1.05 | relative viability (LC-2-ad; first compound 8 µM): 1 | relative viability (NCI-H2347; first compound 0.253 µM): 0.928 | relative viability (NCI-H2347; first compound 0.8 µM): 0.797 | relative viability (NCI-H2347; first compound 2.53 µM): 0.894 | relative viability (NCI-H2347; first compound 8 µM): 0.802 | relative viability (EMC-BAC-2; first compound 0.253 µM): 0.921 | relative viability (EMC-BAC-2; first compound 0.8 µM): 0.825 | relative viability (EMC-BAC-2; first compound 2.53 µM): 0.905 | relative viability (EMC-BAC-2; first compound 8 µM): 0.754 | relative viability (NCI-H23; first compound 0.253 µM): 1.05 | relative viability (NCI-H23; first compound 0.8 µM): 1 | relative viability (NCI-H23; first compound 2.53 µM): 1.16 | relative viability (NCI-H23; first compound 8 µM): 0.781 | relative viability (NCI-H1793; first compound 0.253 µM): 0.675 | relative viability (NCI-H1793; first compound 0.8 µM): 0.483 | relative viability (NCI-H1793; first compound 2.53 µM): 1.07 | relative viability (NCI-H1793; first compound 8 µM): 0.454 | relative viability (NCI-H1437; first compound 0.253 µM): 0.692 | relative viability (NCI-H1437; first compound 0.8 µM): 0.758 | relative viability (NCI-H1437; first compound 2.53 µM): 1.11 | relative viability (NCI-H1437; first compound 8 µM): 0.914 | relative viability (NCI-H650; first compound 0.253 µM): 1.04 | relative viability (NCI-H650; first compound 2.53 µM): 1.01 | relative viability (NCI-H650; first compound 8 µM): 0.804 | relative viability (201T; first compound 0.253 µM): 1.07 | relative viability (201T; first compound 0.8 µM): 0.815 | relative viability (201T; first compound 2.53 µM): 1.02 | relative viability (201T; first compound 8 µM): 0.954 | relative viability (HCC-366; first compound 0.253 µM): 1.03 | relative viability (HCC-366; first compound 0.8 µM): 1.1 | relative viability (HCC-366; first compound 2.53 µM): 1.03 | relative viability (HCC-366; first compound 8 µM): 1.07 | relative viability (NCI-H1395; first compound 0.253 µM): 1.1 | relative viability (NCI-H1395; first compound 2.53 µM): 0.948 | relative viability (NCI-H1395; first compound 8 µM): 0.845 | relative viability (NCI-H1915; first compound 0.253 µM): 0.979 | relative viability (NCI-H1915; first compound 0.8 µM): 0.807 | relative viability (NCI-H1915; first compound 2.53 µM): 1.11 | relative viability (NCI-H1915; first compound 8 µM): 1.02 | relative viability (HCC-15; first compound 0.253 µM): 0.902 | relative viability (HCC-15; first compound 2.53 µM): 1.07 | relative viability (HCC-15; first compound 8 µM): 0.841

Nc1cccc2c1CN(C1CCC(=O)NC1=O)C2=O (configuration not stated) [Lenalidomide] + Cc1nc(NC(=O)N2CCC[C@H]2C(N)=O)sc1-c1ccnc(C(C)(C)C(F)(F)F)c1 [Alpelisib] (partner 2 µM)
relative viability (COR-L 105; first compound 0.253 µM): 0.982 | relative viability (COR-L 105; first compound 0.8 µM): 0.81 | relative viability (COR-L 105; first compound 2.53 µM): 1.07 | relative viability (COR-L 105; first compound 8 µM): 0.994 | relative viability (NCI-H1755; first compound 0.253 µM): 0.865 | relative viability (NCI-H1755; first compound 0.8 µM): 0.913 | relative viability (NCI-H1755; first compound 2.53 µM): 0.985 | relative viability (NCI-H1755; first compound 8 µM): 0.8 | relative viability (SK-MES-1; first compound 0.253 µM): 0.908 | relative viability (SK-MES-1; first compound 0.8 µM): 1.02 | relative viability (SK-MES-1; first compound 2.53 µM): 0.975 | relative viability (SK-MES-1; first compound 8 µM): 0.617 | relative viability (NCI-H2023; first compound 0.253 µM): 0.594 | relative viability (NCI-H2023; first compound 0.8 µM): 0.745 | relative viability (NCI-H2023; first compound 2.53 µM): 0.697 | relative viability (NCI-H2023; first compound 8 µM): 0.61 | relative viability (NCI-H1792; first compound 0.253 µM): 0.755 | relative viability (NCI-H1792; first compound 0.8 µM): 0.604 | relative viability (NCI-H1792; first compound 2.53 µM): 0.82 | relative viability (NCI-H1792; first compound 8 µM): 0.612 | relative viability (COR-L23; first compound 0.253 µM): 0.798 | relative viability (COR-L23; first compound 0.8 µM): 0.794 | relative viability (COR-L23; first compound 2.53 µM): 0.784 | relative viability (COR-L23; first compound 8 µM): 0.875 | relative viability (NCI-H2009; first compound 0.253 µM): 1.1 | relative viability (NCI-H2009; first compound 0.8 µM): 1.12 | relative viability (NCI-H2009; first compound 2.53 µM): 1.19 | relative viability (NCI-H2009; first compound 8 µM): 1.21 | relative viability (NCI-H358; first compound 0.253 µM): 0.902 | relative viability (NCI-H358; first compound 0.8 µM): 0.834 | relative viability (NCI-H358; first compound 2.53 µM): 0.838 | relative viability (NCI-H358; first compound 8 µM): 1.06 | relative viability (PC-14; first compound 0.253 µM): 0.899 | relative viability (PC-14; first compound 0.8 µM): 0.93 | relative viability (PC-14; first compound 2.53 µM): 0.982 | relative viability (PC-14; first compound 8 µM): 0.9 | relative viability (LC-2-ad; first compound 0.253 µM): 0.86 | relative viability (LC-2-ad; first compound 0.8 µM): 0.98 | relative viability (LC-2-ad; first compound 2.53 µM): 0.84 | relative viability (LC-2-ad; first compound 8 µM): 0.881 | relative viability (NCI-H2347; first compound 0.253 µM): 1.06 | relative viability (NCI-H2347; first compound 0.8 µM): 0.957 | relative viability (NCI-H2347; first compound 2.53 µM): 0.964 | relative viability (NCI-H2347; first compound 8 µM): 0.875 | relative viability (EMC-BAC-2; first compound 0.253 µM): 0.691 | relative viability (EMC-BAC-2; first compound 0.8 µM): 0.706 | relative viability (EMC-BAC-2; first compound 2.53 µM): 0.762 | relative viability (EMC-BAC-2; first compound 8 µM): 0.625 | relative viability (NCI-H23; first compound 0.253 µM): 0.792 | relative viability (NCI-H23; first compound 0.8 µM): 0.581 | relative viability (NCI-H23; first compound 2.53 µM): 0.846 | relative viability (NCI-H23; first compound 8 µM): 0.47 | relative viability (NCI-H1793; first compound 0.253 µM): 0.858 | relative viability (NCI-H1793; first compound 0.8 µM): 0.828 | relative viability (NCI-H1793; first compound 2.53 µM): 0.673 | relative viability (NCI-H1793; first compound 8 µM): 0.57 | relative viability (NCI-H1437; first compound 0.253 µM): 1.01 | relative viability (NCI-H1437; first compound 0.8 µM): 1.03 | relative viability (NCI-H1437; first compound 2.53 µM): 1.09 | relative viability (NCI-H1437; first compound 8 µM): 1 | relative viability (NCI-H650; first compound 0.253 µM): 1.22 | relative viability (NCI-H650; first compound 2.53 µM): 1.41 | relative viability (NCI-H650; first compound 8 µM): 1.15 | relative viability (201T; first compound 0.253 µM): 1.11 | relative viability (201T; first compound 0.8 µM): 1.15 | relative viability (201T; first compound 2.53 µM): 1.06 | relative viability (201T; first compound 8 µM): 0.984 | relative viability (HCC-366; first compound 0.253 µM): 0.402 | relative viability (HCC-366; first compound 0.8 µM): 0.336 | relative viability (HCC-366; first compound 2.53 µM): 0.549 | relative viability (HCC-366; first compound 8 µM): 0.324 | relative viability (NCI-H1395; first compound 0.253 µM): 0.946 | relative viability (NCI-H1395; first compound 2.53 µM): 1.06 | relative viability (NCI-H1395; first compound 8 µM): 0.948 | relative viability (NCI-H1915; first compound 0.253 µM): 0.984 | relative viability (NCI-H1915; first compound 0.8 µM): 1.07 | relative viability (NCI-H1915; first compound 2.53 µM): 1.13 | relative viability (NCI-H1915; first compound 8 µM): 1.07 | relative viability (HCC-15; first compound 0.253 µM): 1.02 | relative viability (HCC-15; first compound 2.53 µM): 0.886 | relative viability (HCC-15; first compound 8 µM): 0.865

— the supplement of paper PMC10307832
